Assay results as given in US20230145868A1, “UREA INHIBITORS OF MICRO-RNA” (Board of Regents, The University of Texas System, priority 2020, published 2023).

Experiments:
HOXD10 = assay: Western blot, HOXD10 expression; assay type: cell-based, human; details: vs DMSO
Method: Proteins are collected from cultured cells and lysed with 10× Lysis Buffer (Cell Signaling) freshly supplemented with a complete protease inhibitor cocktail and phosphatase inhibitors (Sigma). Bradford assay is used to measure protein concentration. Proteins are separated by polyacrylamide gel (Bio-rad) electrophoresis and were transferred to a 0.2 μm nitrocellulose membrane (Bio-rad). Quantification of protein expression was conducted using the image analysis software ImageJ.

miR-10b [1] = assay: Luciferase reporter assay of miR-10b inhibition, MDA-MB-231 cells; assay type: cell-based; details: Homo sapiens, MDA-MB-231, 48 h
Excerpt: (§1) To identify miR-10b inhibitors, a luciferase reporter system was designed with complementary oligonucleotides for miR-10b.This luciferase reporter would repress Renilla luciferase signal in the presence of a functional mature miR-10b. However, in the presence of a small molecule that can inhibit mature miR-10b expression or affect its downstream function, the luciferase expression is restored again.
(§2) The PsiCHECK™-2 luciferase reporter vector was acquired from Promega™, Complementary oligonucleotides for hsa-miR-10b were designed based on the mature miRNA sequence and obtained from Thermo Fisher Scientific. In the design of the microRNA target sequence, several base pairs were added to have two different restriction sites recognizable by the enzyme SgfI at one side, and PmeI on the other (present in the vector as well). In addition, the insert was designed with a restriction site for SacI enzyme in order to have an additional site to digest the vector when monitoring colonies for the presence/absence of the insert. The designed oligonucleotides were annealed as follows: Complementary strands were mixed at a 1:1 molar ratio in a micro centrifuge tube. The mixture was diluted to a final concentration of 1 pmol/μl with a buffer solution of 10 mM Tris, 1 mM EDTA, and 50 mM NaCl (pH 8.0). Mixes were incubated at 95° C. for 5 min, and then the heat was reduced gradually for 70 min, until reaching 4° C. The annealed oligonucleotides were digested along with the PsiCHECK™2 vector with SgfI and PmeI and ligated at the 3′-UTR (downstream) of the Renilla luciferase reporter gene in the PsiCHECK™-2vector. Insert sequences were further confirmed in two ways: enzymatic digestion and sequencing.
(§3) MCF7 cells were seeded 24 h prior to transfection in 96 well plates (2.0×10^4 cells/well). For testing the sensitivity of the assay, antagomiRs and pre-miRs against miR-10b were used at a final concentration of 100 nM. For testing small molecule miRNA inhibitors, the compounds of interest were added to a final concentration of 10 μM. The assay was done in MCF7 or MDA-MB-231 cells at approximately 60% confluence using Lipofectamine in Opti-Mem media with the final vector concentration of 250 ng/mL. All transfections were performed in triplicate for statistical analysis. The cells were incubated at 37° C. for 6 h, followed by replacement of the transfected media with fresh media. After 48 h incubation, the media was removed, and cells were lysed and assayed with a Dual Luciferase Assay Kit (Promega) using a Vi-Tech luminometer. The ratio of Renilla to firefly luciferase expression was calculated for each of the triplicates.

miR-10b [2] = assay: Luciferase reporter assay of miR-10b inhibition, MCF7 cells; assay type: cell-based; details: Homo sapiens, MCF7, 48 h
Excerpt: as §1, §2, §3

mature miR-10b = assay: RT-qPCR of mature miR-10b; assay type: cell-based, human; details: normalized to U6, vs DMSO
Method: Potential small molecule miRNA inhibitors were tested in MCF7 cells, a metastatic cell line (MM231) and an HCC cell line (HepG2) through RT-qPCR. Cells were seeded in 12-well plates 24 h before treatments at a confluence of 50-60%. They were treated at a concentration of 10 μM linifanib (positive control) or DMSO (negative control), and RNA was collected after 24 and 48 h. MicroRNA expression was tested using TaqMan microRNA assay (Applied Biosystems). The cDNA was synthesized using TaqMan Reverse Transcription Reagents kit (Applied Biosystems) and employed for quantitative RT-qPCR analysis together with TaqMan probes and SsoFastSupermix (Bio-rad). Primers and probes were purchased for hsa-miR-10b, hsa-pri-miR-10b, U6, and U48 snRNA that was used as an internal control.
To detect the levels of the precursor sequences, cDNA was synthesized using the SuperScript III cDNA kit (Invitrogen). Diluted cDNA was used for RT-qPCR analysis using iQ SYBR Green Supermix (Bio-Rad) with primers designed by in-house. Experiments were performed in triplicate; treated samples were compared to the DMSO-treated controls and normalized to the internal control. Relative expression levels were calculated using the 2-ΔCt method.

AGS cell line = assay: Migration assay, AGS; assay type: cell-based, human; details: vs DMSO
[3] = Table 5, MDA-MB-231, 10 μM compound, vs negative control (DMSO), mean of triplicate, read-out: n-fold increase in luciferase expression, Mean
[4] = Table 5, MDA-MB-231, 10 μM compound, vs negative control (DMSO), replicate #1, read-out: n-fold increase in luciferase expression, #1
[5] = Table 5, MDA-MB-231, 10 μM compound, vs negative control (DMSO), replicate #2, read-out: n-fold increase in luciferase expression, #2
[6] = Table 5, MDA-MB-231, 10 μM compound, vs negative control (DMSO), replicate #3, read-out: n-fold increase in luciferase expression, #3
[7] = Table 7, MDA-MB-231, second biological replicant, 10 μM compound, mean of triplicate, read-out: n-fold increase in luciferase expression, Mean
[8] = Table 7, MDA-MB-231, second biological replicant, 10 μM compound, replicate #1, read-out: n-fold increase in luciferase expression, #1
[9] = Table 7, MDA-MB-231, second biological replicant, 10 μM compound, replicate #2, read-out: n-fold increase in luciferase expression, #2
[10] = Table 7, MDA-MB-231, second biological replicant, 10 μM compound, replicate #3, read-out: n-fold increase in luciferase expression, #3
[11] = Table 6, MCF7, second biological replicant, 10 μM compound, mean of triplicate, read-out: n-fold increase in luciferase expression, Mean
[12] = Table 6, MCF7, second biological replicant, 10 μM compound, replicate #1, read-out: n-fold increase in luciferase expression, #1
[13] = Table 6, MCF7, second biological replicant, 10 μM compound, replicate #2, read-out: n-fold increase in luciferase expression, #2
[14] = Table 6, MCF7, second biological replicant, 10 μM compound, replicate #3, read-out: n-fold increase in luciferase expression, #3

Structure (SMILES) | HOXD10 expression (Western blot) (HOXD10; AGS cell line) | fold induction at 10 µM (miR-10b [1]; [3]) | fold induction at 10 µM (miR-10b [1]; [4]) | fold induction at 10 µM (miR-10b [1]; [5]) | fold induction at 10 µM (miR-10b [1]; [6]) | fold induction at 10 µM (miR-10b [1]; [7]) | fold induction at 10 µM (miR-10b [1]; [8]) | fold induction at 10 µM (miR-10b [1]; [9]) | fold induction at 10 µM (miR-10b [1]; [10]) | fold induction at 10 µM (miR-10b [2]; [11]) | fold induction at 10 µM (miR-10b [2]; [12]) | fold induction at 10 µM (miR-10b [2]; [13]) | fold induction at 10 µM (miR-10b [2]; [14]) | level of mature miR-10b (mature miR-10b; AGS gastric cell line) | level of mature miR-10b (mature miR-10b; AsPC1 pancreatic cell line) | migration (AGS cell line) | also measured
Cc1ccc(F)c(NC(=O)Nc2ccc(-c3cncnc3)cc2)c1 [Example 2, 1-(2-fluoro-5-methylphenyl)-3-(4-(pyrimidin-5-yl)phenyl)urea] | upregulated | 1.58 | 1.45 | 1.9 | 1.38 | 2.13 | 2.38 | 1.88 | 2.15 | 2.44 | 2.51 | 2.84 | 1.96 | reduce the level of mature miR-10b | reduces the level of mature miR-10b | decreased migration | fold induction at 10 µM (miR-10b [2]; Table 3, MCF7, 10 μM compound, vs negative control (DMSO), mean of triplicate, read-out: n-fold increase in luciferase expression, Mean): 2.19; fold induction at 10 µM (miR-10b [2]; Table 3, MCF7, 10 μM compound, vs negative control (DMSO), replicate #1, read-out: n-fold increase in luciferase expression, #1): 2.75; fold induction at 10 µM (miR-10b [2]; Table 3, MCF7, 10 μM compound, vs negative control (DMSO), replicate #2, read-out: n-fold increase in luciferase expression, #2): 1.78; fold induction at 10 µM (miR-10b [2]; Table 3, MCF7, 10 μM compound, vs negative control (DMSO), replicate #3, read-out: n-fold increase in luciferase expression, #3): 2.05
Cc1ccc(F)c(NC(=O)Nc2ccc(-c3cccc4cn[nH]c34)cc2)c1 [Example 4, 1-(4-(1H-indazol-7-yl)phenyl)-3-(2-fluoro-5-methylphenyl)urea] | upregulated | 1.43 | 1.36 | 1.7 | 1.24 | 1.55 | 1.81 | 1.8 | 1.05 | 2.54 | 4.28 | 2.09 | 1.24 | reduces the level of mature miR-10b | reduces the level of mature miR-10b | decreased migration | HOXD10 expression (Western blot) (HOXD10; AsPC1 cell line): upregulated; fold induction at 10 µM (miR-10b [2]; Table 4, MCF7, 10 μM compound, vs negative control (DMSO), mean of triplicate, read-out: n-fold increase in luciferase expression, Mean): 2.71; fold induction at 10 µM (miR-10b [2]; Table 4, MCF7, 10 μM compound, vs negative control (DMSO), replicate #1, read-out: n-fold increase in luciferase expression, #1): 1.95; fold induction at 10 µM (miR-10b [2]; Table 4, MCF7, 10 μM compound, vs negative control (DMSO), replicate #2, read-out: n-fold increase in luciferase expression, #2): 3.8; fold induction at 10 µM (miR-10b [2]; Table 4, MCF7, 10 μM compound, vs negative control (DMSO), replicate #3, read-out: n-fold increase in luciferase expression, #3): 2.39
